Measured values from patent US20240246964A1 (Arbutus Biopharma Corporation, priority 2021, published 2024).
pEC50, pIC50: −log10 of the molar value.

Columns and labels:
human PD-L1 = human PD-L1 (Homo sapiens (Human), UniProt Q9NZQ7); experiment: T cell activation luciferase reporter cell culture system (T Cell Activation Assay); type: cell-based; conditions: luciferase reporter assay; PD-L1 aAPC/CHO-K1 cells with PD-1 effector Jurkat T cells
[1] = molecular target: PD-L1 His protein / PD-1 Fc protein (Homo sapiens (Human), UniProt Q9NZQ7); experiment: HTRF Assay (PD-1/PD-L1 interaction); type: binding; conditions: PD-L1 His 6 nM, PD-1 Fc 6 nM
Chain of PD-L1 His protein / PD-1 Fc protein (Q9NZQ7 19-238): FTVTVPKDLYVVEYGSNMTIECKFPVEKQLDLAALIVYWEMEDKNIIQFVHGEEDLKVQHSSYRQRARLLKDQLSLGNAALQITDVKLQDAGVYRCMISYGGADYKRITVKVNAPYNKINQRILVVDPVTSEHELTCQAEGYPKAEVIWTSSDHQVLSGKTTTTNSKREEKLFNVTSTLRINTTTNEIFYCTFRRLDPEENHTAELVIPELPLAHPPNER

Chain of human PD-L1 (Q9NZQ7 19-290): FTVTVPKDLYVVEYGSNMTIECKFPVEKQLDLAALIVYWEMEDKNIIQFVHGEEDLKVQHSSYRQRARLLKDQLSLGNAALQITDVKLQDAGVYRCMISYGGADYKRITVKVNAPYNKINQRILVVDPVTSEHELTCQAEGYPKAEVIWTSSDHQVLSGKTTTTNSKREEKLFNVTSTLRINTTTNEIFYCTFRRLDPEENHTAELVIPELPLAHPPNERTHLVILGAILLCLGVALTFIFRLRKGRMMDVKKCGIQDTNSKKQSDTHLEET

`COc1cc(-c2nccc(-c3cccc(-c4ccc(CNC5CCOCC5)c(OC)n4)c3Cl)c2C)ccc1CNC1CCOCC1` [Example 462, N-((6-(2-chloro-3-(2-(3-methoxy-4-(((tetrahydro-2H-pyran-4-yl)amino)methyl)phenyl)-3-methylpyridin-4-yl)phenyl)-2-methoxypyridin-3-yl)methyl)tetrahydro-2H-pyran-4-amine] gave a pEC50 (human PD-L1) of 6.75 and a pIC50 [1] of 8.17.
Work on `COc1nc(-c2ccnc(-c3cccc4c3CC[C@@H]4Oc3nc(OC)c(CNC4CCN(C(C)=O)CC4)cc3C(F)(F)F)c2Cl)ccc1CNC1CCN(C(C)=O)CC1` [Example 254, (S)-1-(4-(((6-((4-(5-(((1-Acetylpiperidin-4-yl)amino)methyl)-3′-chloro-6-methoxy-[2,4′-bipyridin]-2′-yl)-2,3-dihydro-1H-inden-1-yl)oxy)-2-methoxy-5-(trifluoromethyl)pyridin-3-yl)methyl)amino)piperidin-1-yl)ethan-1-one] yielded a pEC50 (human PD-L1) of 6.83 and a pIC50 [1] of 7.03.
In the case of `COc1cc(-c2nccc(-c3cccc(-c4ccc(CN5CC6(CCOCC6)C5)c(OC)n4)c3Cl)c2Cl)ccc1CN1CC2(CCOCC2)C1` [Example 470, 2-((6-(3-(2-(4-((7-Oxa-2-azaspiro[3.5]nonan-2-yl)methyl)-3-methoxyphenyl)-3-chloropyridin-4-yl)-2-chlorophenyl)-2-methoxypyridin-3-yl)methyl)-7-oxa-2-azaspiro[3.5]nonane], the pEC50 (human PD-L1) was 6.72 and the pIC50 [1] was 7.71.
Work on `COc1cc(-c2nccc(-c3cccc(-c4ccc(CNC[C@@H]5CCC(=O)N5)c(OC)n4)c3Cl)c2Cl)cc(C)c1CNC[C@H](C)O` [Compound 114, (S)-5-((((6-(2-chloro-3-(3-chloro-2-(4-((((S)-2-hydroxypropyl)amino)methyl)-3-methoxy-5-methylphenyl)pyridin-4-yl)phenyl)-2-methoxypyridin-3-yl)methyl)amino)methyl)pyrrolidin-2-one] yielded a pEC50 (human PD-L1) of 7.09 and a pIC50 [1] of 9.05.
Molecule `COc1nc(-c2cccc(-c3ccnc(-c4ccc(CNC5CCOCC5)c(OC(F)F)c4)c3Cl)c2Cl)ccc1CN1CC2(C1)CN(C(C)=O)C2` [Example 689, 1-(6-((6-(2-Chloro-3-(3-chloro-2-(3-(difluoromethoxy)-4-(((tetrahydro-2H-pyran-4-yl)amino)methyl)phenyl)pyridin-4-yl)phenyl)-2-methoxypyridin-3-yl)methyl)-2,6-diazaspiro[3.3]heptan-2-yl)ethan-1-one] has a pEC50 (human PD-L1) of 7.43 and a pIC50 [1] of 8.48.
`COc1nc(-c2ccnc(-c3cccc(NC(=O)c4ccc(CNCCO)cn4)c3C)c2Cl)ccc1CNC1CCOCC1` [Example 766, N-(3-(3′-Chloro-6-methoxy-5-(((tetrahydro-2H-pyran-4-yl)amino)methyl)-[2,4′-bipyridin]-2′-yl)-2-methylphenyl)-5-(((2-hydroxyethyl)amino)methyl)picolinamide] gave a pEC50 (human PD-L1) of 6.82 and a pIC50 [1] of 9.49.
Molecule `COc1nc(-c2cccc(-c3ccnc(-c4cc5c(=O)n(C)c(CN6CC(C)(O)C6)nn5c4)c3Cl)c2Cl)ccc1CNC[C@@H]1CCC(=O)N1` [Compound 110, (S)-6-(3-chloro-4-(2-chloro-3-(6-methoxy-5-((((5-oxopyrrolidin-2-yl)methyl)amino)methyl)pyridin-2-yl)phenyl)pyridin-2-yl)-2-((3-hydroxy-3-methylazetidin-1-yl)methyl)-3-methylpyrrolo[2,1-f][1,2,4]triazin-4(3H)-one] has a pEC50 (human PD-L1) of 7.22 and a pIC50 [1] of 9.05.
`COc1cc(-c2nccc(-c3cccc(-c4ccc5c(CNC6CN(C(C)=O)C6)cn(C)c5n4)c3Cl)c2Cl)ccc1CNC[C@@H]1CCC(=O)N1` [Compound 95, (S)-5-(((4-(4-(3-(3-(((1-acetylazetidin-3-yl)amino)methyl)-1-methyl-1H-pyrrolo[2,3-b]pyridin-6-yl)-2-chlorophenyl)-3-chloropyridin-2-yl)-2-methoxybenzyl)amino)methyl)pyrrolidin-2-one] showed a pEC50 (human PD-L1) of 6.98 and a pIC50 [1] of 9.22.
In the case of `COCC(=O)N1CC2(CN(Cc3ccc(-c4cccc(-c5ccnc(-c6ccc(CN7CC8(CNC(=O)C8)C7)c(OC)c6)c5Cl)c4Cl)nc3OC)C2)C1` [Example 687, 2-(4-(3-Chloro-4-(2-chloro-3-(6-methoxy-5-((6-(2-methoxyacetyl)-2,6-diazaspiro[3.3]heptan-2-yl)methyl)pyridin-2-yl)phenyl)pyridin-2-yl)-2-methoxybenzyl)-2,6-diazaspiro[3.4]octan-7-one], the pEC50 (human PD-L1) was 7.58 and the pIC50 [1] was 10.10.
`COc1nc(-c2ccnc(-c3cccc4c3CC[C@@H]4Nc3nc(OC)c(CN[C@H]4C[C@](C)(O)C4)cc3C(F)(F)F)c2Cl)ccc1CN[C@H]1C[C@](C)(O)C1` [Compound 225, (1S,3r)-3-(((3′-chloro-2′-((S)-1-((5-((((1r,3S)-3-hydroxy-3-methylcyclobutyl)amino)methyl)-6-methoxy-3-(trifluoromethyl)pyridin-2-yl)amino)-2,3-dihydro-1H-inden-4-yl)-6-methoxy-[2,4′-bipyridin]-5-yl)methyl)amino)-1-methylcyclobutan-1-ol] was tested, and the pEC50 (human PD-L1) was ≤ 5.00 and the pIC50 [1] was 8.09.
For `COc1cc(-c2ncnc(-c3cccc(-c4ccc(CN[C@H]5C[C@H](O)C5)c(OC)n4)c3Cl)c2Cl)ccc1CN[C@H]1C[C@H](O)C1` [Example 593, (1r,3r)-3-(((6-(2-Chloro-3-(5-chloro-6-(4-((((1r,3r)-3-hydroxycyclobutyl)amino)methyl)-3-methoxyphenyl)pyrimidin-4-yl)phenyl)-2-methoxypyridin-3-yl)methyl)amino)cyclobutan-1-ol], the pEC50 (human PD-L1) was 6.98 and the pIC50 [1] was 9.80.
Molecule `COc1cc(-c2nccc(-c3cccc(-c4ccc(CNC[C@H]5CNC(=O)C5)c(OC)n4)c3Cl)c2Cl)ccc1CNC[C@H]1CNC(=O)C1` [Example 405, (S)-4-((((6-(2-Chloro-3-(3-chloro-2-(3-methoxy-4-(((((S)-5-oxopyrrolidin-3-yl)methyl)amino)methyl)phenyl)pyridin-4-yl)phenyl)-2-methoxypyridin-3-yl)methyl)amino)methyl)pyrrolidin-2-one] has a pEC50 (human PD-L1) of 7.62 and a pIC50 [1] of 9.63.
With `COc1nc(-c2ccnc(-c3cccc4c3CC[C@@H]4Nc3nc(OC)c(CN4CC5(C4)CN(C(C)=O)C5)nc3C(F)(F)F)c2Cl)ccc1CN1CC2(C1)CN(C(C)=O)C2` [Example 305, (S)-1-(6-((5-((4-(5-((6-Acetyl-2,6-diazaspiro[3.3]heptan-2-yl)methyl)-3′-chloro-6-methoxy-[2,4′-bipyridin]-2′-yl)-2,3-dihydro-1H-inden-1-yl)amino)-3-methoxy-6-(trifluoromethyl)pyrazin-2-yl)methyl)-2,6-diazaspiro[3.3]heptan-2-yl)ethan-1-one] the pEC50 (human PD-L1) was ≤ 5.00 and the pIC50 [1] was 8.30.
With `COc1nc(-c2ccnc(-c3cccc4c3CC[C@@H]4Oc3nc(OC)c(CNC4CCOCC4)cc3C(F)(F)F)c2Cl)ccc1CN1CC2(CNC(=O)C2)C1` [Example 552, (S)-2-((3′-Chloro-6-methoxy-2′-(1-((6-methoxy-5-(((tetrahydro-2H-pyran-4-yl)amino)methyl)-3-(trifluoromethyl)pyridin-2-yl)oxy)-2,3-dihydro-1H-inden-4-yl)-[2,4′-bipyridin]-5-yl)methyl)-2,6-diazaspiro[3.4]octan-7-one] the pEC50 (human PD-L1) was 6.84 and the pIC50 [1] was 9.60.
Work on `COc1cc(-c2nccc(-c3cccc(-c4ccc(CN5CC(C)(O)C5)c(OC)n4)c3Cl)c2Cl)ccc1CN1CC(C)(O)C1` [Example 396, 1-((6-(2-Chloro-3-(3-chloro-2-(4-((3-hydroxy-3-methylazetidin-1-yl)methyl)-3-methoxyphenyl)pyridin-4-yl)phenyl)-2-methoxypyridin-3-yl)methyl)-3-methylazetidin-3-ol] yielded a pEC50 (human PD-L1) of 7.82 and a pIC50 [1] of 8.86.
Work on `COc1cc(-c2nccc(-c3cccc(NC(=O)c4cn(C)c(=O)n(C)c4=O)c3Cl)c2Cl)ccc1CNC[C@@H]1CCC(=O)N1` [Example 657, (S)—N-(2-Chloro-3-(3-chloro-2-(3-methoxy-4-((((5-oxopyrrolidin-2-yl)methyl)amino)methyl)phenyl)pyridin-4-yl)phenyl)-1,3-dimethyl-2,4-dioxo-1,2,3,4-tetrahydropyrimidine-5-carboxamide] yielded a pEC50 (human PD-L1) of 7.48 and a pIC50 [1] of 9.85.
`COc1cc(-c2nccc(-c3cccc(-c4ccc5c(CNCCO)cn(C)c5n4)c3Cl)c2Cl)ccc1CNC1CCN(C(C)=O)CC1` [Example 559, 1-(4-((4-(3-Chloro-4-(2-chloro-3-(3-(((2-hydroxyethyl)amino)methyl)-1-methyl-1H-pyrrolo[2,3-b]pyridin-6-yl)phenyl)pyridin-2-yl)-2-methoxybenzyl)amino)piperidin-1-yl)ethan-1-one] was tested, and the pEC50 (human PD-L1) was 7.14 and the pIC50 [1] was 8.79.
For `COc1cc(-c2nccc(-c3cccc(-c4ccc(CNC5CCN(C(C)=O)CC5)c(OC)n4)c3Cl)c2Cl)ccc1CN[C@H]1CCOC1=O` [Example 340, (S)-3-((4-(4-(3-(5-(((1-Acetylpiperidin-4-yl)amino)methyl)-6-methoxypyridin-2-yl)-2-chlorophenyl)-3-chloropyridin-2-yl)-2-methoxybenzyl)amino)dihydrofuran-2(3H)-one], the pEC50 (human PD-L1) was 6.28 and the pIC50 [1] was 10.00.
For `COc1cc(-c2nccc(-c3cccc(-c4ccc(CNCC(=O)O)c(OC)n4)c3Cl)c2Cl)cc2c1CN(C[C@H](C)O)CC2` [Compound 229, (S)-((6-(2-chloro-3-(3-chloro-2-(2-(2-hydroxypropyl)-8-methoxy-1,2,3,4-tetrahydroisoquinolin-6-yl)pyridin-4-yl)phenyl)-2-methoxypyridin-3-yl)methyl)glycine], the pEC50 (human PD-L1) was 6.61 and the pIC50 [1] was 8.95.
In the case of `COc1cc(-c2ccnc(-c3cccc(-c4ccc(CNC5CCN(C(C)=O)CC5)c(OC)n4)c3Cl)c2Cl)ccc1CNC1CCN(C(C)=O)CC1` [Compound 621, 1-(4-(((6-(3-(4-(4-(((1-Acetylpiperidin-4-yl)amino)methyl)-3-methoxyphenyl)-3-chloropyridin-2-yl)-2-chlorophenyl)-2-methoxypyridin-3-yl)methyl)amino)piperidin-1-yl)ethan-1-one], the pEC50 (human PD-L1) was 6.52 and the pIC50 [1] was 8.81.
